Measurements as given in ChEMBL document CHEMBL5678810.
The source made the active and inactive calls. The calls are words filed in the database; no cut-off is given here.

Assays:
[1] = target: Bone morphogenetic protein receptor type-2 (Homo sapiens) (UniProt Q13873); assay: Inhibition of T7 bacteriophage fused human BMPR2 at 10 uM by KINOMEscan analysis relative to control
[2] = target: Ephrin type-A receptor 1 (Homo sapiens) (UniProt P21709); assay: Inhibition of T7 bacteriophage fused human EPHA1 at 10 uM by KINOMEscan analysis relative to control
[3] = target: Myosin light chain kinase family member 4 (Homo sapiens) (UniProt Q86YV6); assay: Inhibition of T7 bacteriophage fused human MYLK4 at 10 uM by KINOMEscan analysis relative to control; values are per cent of control
[4] = target: Serine/threonine-protein kinase STK11 (Homo sapiens) (UniProt Q15831); assay: Inhibition of T7 bacteriophage fused human LKB1 at 10 uM by KINOMEscan analysis relative to control; values are per cent of control
[5] = target: Myosin-IIIb (Homo sapiens) (UniProt Q8WXR4); assay: Inhibition of T7 bacteriophage fused human MYO3B at 10 uM by KINOMEscan analysis relative to control
[6] = target: Membrane-associated tyrosine- and threonine-specific cdc2-inhibitory kinase (Homo sapiens) (UniProt Q99640); assay: Inhibition of T7 bacteriophage fused human PKMYT1 at 10 uM by KINOMEscan analysis relative to control
[7] = target: Mitogen-activated protein kinase 12 (Homo sapiens) (UniProt P53778); assay: Inhibition of T7 bacteriophage fused human p38-gamma at 10 uM by KINOMEscan analysis relative to control
[8] = target: Rhodopsin kinase GRK7 (Homo sapiens) (UniProt Q8WTQ7); assay: Inhibition of T7 bacteriophage fused human GRK7 at 10 uM by KINOMEscan analysis relative to control
[9] = target: Fibroblast growth factor receptor 3 (Homo sapiens) (UniProt P22607); assay: Inhibition of T7 bacteriophage fused human FGFR3 at 10 uM by KINOMEscan analysis relative to control; values are per cent of control
[10] = tested on: Tyrosine-protein kinase ABL1 (Homo sapiens), P00519 [H396P]; assay: Inhibition of T7 bacteriophage fused human phosphorylated ABL1 H396P mutant at 10 uM by KINOMEscan analysis relative to control
[11] = target: Receptor-interacting serine/threonine-protein kinase 2 (Homo sapiens) (UniProt O43353); assay: Inhibition of T7 bacteriophage fused human RIPK2 at 10 uM by KINOMEscan analysis relative to control
[12] = target: Ephrin type-B receptor 6 (Homo sapiens) (UniProt O15197); assay: Inhibition of T7 bacteriophage fused human EPHB6 at 10 uM by KINOMEscan analysis relative to control
[13] = target: 3-phosphoinositide-dependent protein kinase 1 (Homo sapiens) (UniProt O15530); assay: Inhibition of T7 bacteriophage fused human PDPK1 at 10 uM by KINOMEscan analysis relative to control
[14] = tested on: Epidermal growth factor receptor (Homo sapiens), P00533 [L861Q]; assay: Inhibition of T7 bacteriophage fused human EGFR L861Q mutant at 10 uM by KINOMEscan analysis relative to control
[15] = tested on: Mast/stem cell growth factor receptor Kit (Homo sapiens), P10721 [V559D,V654A]; assay: Inhibition of T7 bacteriophage fused human KIT V559D/V654A mutant at 10 uM by KINOMEscan analysis relative to control
[16] = target: Serine/threonine-protein kinase LATS2 (Homo sapiens) (UniProt Q9NRM7); assay: Inhibition of T7 bacteriophage fused human LATS2 at 10 uM by KINOMEscan analysis relative to control; values are per cent of control
[17] = tested on: Epidermal growth factor receptor (Homo sapiens), P00533 [T790M]; assay: Inhibition of T7 bacteriophage fused human EGFR T790M mutant at 10 uM by KINOMEscan analysis relative to control; values are per cent of control
[18] = target: Aurora kinase A (Homo sapiens) (UniProt O14965); assay: Inhibition of T7 bacteriophage fused human AURKA at 10 uM by KINOMEscan analysis relative to control
[19] = target: Dual specificity mitogen-activated protein kinase kinase 1 (Homo sapiens) (UniProt Q02750); assay: Inhibition of T7 bacteriophage fused human MEK1 at 10 uM by KINOMEscan analysis relative to control
[20] = tested on: Mast/stem cell growth factor receptor Kit (Homo sapiens), P10721 [D816H]; assay: Inhibition of T7 bacteriophage fused human KIT D816H mutant at 10 uM by KINOMEscan analysis relative to control
[21] = target: Casein kinase I isoform alpha (Homo sapiens) (UniProt P48729); assay: Inhibition of T7 bacteriophage fused human CSNK1A1 at 10 uM by KINOMEscan analysis relative to control
[22] = target: Ribosomal protein S6 kinase alpha-5 (Homo sapiens) (UniProt O75582); assay: Inhibition of T7 bacteriophage fused human C-terminal RPS6KA5 Kinase domain-2 at 10 uM by KINOMEscan analysis relative to control
[23] = target: Cyclin-dependent kinase 7 (Homo sapiens) (UniProt P50613); assay: Inhibition of T7 bacteriophage fused human CDK7 at 10 uM by KINOMEscan analysis relative to control
[24] = target: Serine/threonine-protein kinase N2 (Homo sapiens) (UniProt Q16513); assay: Inhibition of T7 bacteriophage fused human PKN2 at 10 uM by KINOMEscan analysis relative to control
[25] = target: Receptor tyrosine-protein kinase erbB-3 (Homo sapiens) (UniProt P21860); assay: Inhibition of T7 bacteriophage fused human ERBB3 at 10 uM by KINOMEscan analysis relative to control
[26] = target: Phosphatidylinositol 4-phosphate 5-kinase type-1 alpha (Homo sapiens) (UniProt Q99755); assay: Inhibition of T7 bacteriophage fused human PIP5K1A at 10 uM by KINOMEscan analysis relative to control
[27] = target: Dual specificity mitogen-activated protein kinase kinase 3 (Homo sapiens) (UniProt P46734); assay: Inhibition of T7 bacteriophage fused human MEK3 at 10 uM by KINOMEscan analysis relative to control; values are per cent of control
[28] = target: Ankyrin repeat and protein kinase domain-containing protein 1 (Homo sapiens) (UniProt Q8NFD2); assay: Inhibition of T7 bacteriophage fused human ANKK1 at 10 uM by KINOMEscan analysis relative to control
[29] = tested on: Epidermal growth factor receptor (Homo sapiens), P00533 [G719S]; assay: Inhibition of T7 bacteriophage fused human EGFR G719S mutant at 10 uM by KINOMEscan analysis relative to control
[30] = target: Leucine-rich repeat serine/threonine-protein kinase 2 (Homo sapiens) (UniProt Q5S007); assay: Inhibition of LRRK2 phosphorylation at Ser910 residue in EBV immortalized human derived lymphoblastoid cells at 0.01 to 3 uM incubated for 90 mins by immunoblot analysis; assay type: cell-based; details: Lymphoblastoid cell, dose 0.01-3 µM

Receptor tyrosine-protein kinase erbB-3 (Homo sapiens), sequence (P21860 whole entry, the tested form may be a part): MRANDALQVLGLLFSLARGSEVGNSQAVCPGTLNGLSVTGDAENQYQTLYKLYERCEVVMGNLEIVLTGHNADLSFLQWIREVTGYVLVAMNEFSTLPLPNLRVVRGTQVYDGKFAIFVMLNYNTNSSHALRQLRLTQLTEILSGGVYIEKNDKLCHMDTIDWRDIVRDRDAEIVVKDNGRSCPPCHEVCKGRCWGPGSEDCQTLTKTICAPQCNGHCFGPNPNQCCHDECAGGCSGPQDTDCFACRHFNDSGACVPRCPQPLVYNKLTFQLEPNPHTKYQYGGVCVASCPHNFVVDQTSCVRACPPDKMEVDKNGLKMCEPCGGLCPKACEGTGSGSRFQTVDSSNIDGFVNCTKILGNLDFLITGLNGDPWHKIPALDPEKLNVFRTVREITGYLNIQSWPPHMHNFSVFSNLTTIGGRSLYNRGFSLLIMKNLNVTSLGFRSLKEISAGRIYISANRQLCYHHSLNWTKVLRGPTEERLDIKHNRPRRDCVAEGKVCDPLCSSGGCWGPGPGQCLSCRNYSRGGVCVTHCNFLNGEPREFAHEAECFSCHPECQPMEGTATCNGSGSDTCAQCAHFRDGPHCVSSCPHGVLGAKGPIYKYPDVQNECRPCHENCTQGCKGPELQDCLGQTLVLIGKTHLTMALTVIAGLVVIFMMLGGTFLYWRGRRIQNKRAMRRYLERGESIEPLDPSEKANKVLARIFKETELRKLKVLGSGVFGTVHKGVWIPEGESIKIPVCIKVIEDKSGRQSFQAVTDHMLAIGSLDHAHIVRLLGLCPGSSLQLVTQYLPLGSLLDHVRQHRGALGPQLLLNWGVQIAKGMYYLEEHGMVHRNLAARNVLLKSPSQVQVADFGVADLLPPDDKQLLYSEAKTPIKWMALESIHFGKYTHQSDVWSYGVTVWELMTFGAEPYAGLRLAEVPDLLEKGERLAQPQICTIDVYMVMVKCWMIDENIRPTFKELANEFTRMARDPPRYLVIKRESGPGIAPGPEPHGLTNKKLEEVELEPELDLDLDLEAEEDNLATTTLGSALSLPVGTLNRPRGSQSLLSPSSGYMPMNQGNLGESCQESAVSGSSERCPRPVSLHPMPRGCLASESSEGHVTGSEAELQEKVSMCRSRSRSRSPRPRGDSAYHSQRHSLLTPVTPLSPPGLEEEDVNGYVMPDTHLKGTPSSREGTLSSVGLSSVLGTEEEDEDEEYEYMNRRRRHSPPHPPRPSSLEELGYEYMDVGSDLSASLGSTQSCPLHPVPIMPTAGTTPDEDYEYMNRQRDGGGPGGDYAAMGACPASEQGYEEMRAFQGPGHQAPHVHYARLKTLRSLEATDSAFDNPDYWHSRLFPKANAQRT
Dual specificity mitogen-activated protein kinase kinase 1 (Homo sapiens), sequence (Q02750 whole entry, the tested form may be a part): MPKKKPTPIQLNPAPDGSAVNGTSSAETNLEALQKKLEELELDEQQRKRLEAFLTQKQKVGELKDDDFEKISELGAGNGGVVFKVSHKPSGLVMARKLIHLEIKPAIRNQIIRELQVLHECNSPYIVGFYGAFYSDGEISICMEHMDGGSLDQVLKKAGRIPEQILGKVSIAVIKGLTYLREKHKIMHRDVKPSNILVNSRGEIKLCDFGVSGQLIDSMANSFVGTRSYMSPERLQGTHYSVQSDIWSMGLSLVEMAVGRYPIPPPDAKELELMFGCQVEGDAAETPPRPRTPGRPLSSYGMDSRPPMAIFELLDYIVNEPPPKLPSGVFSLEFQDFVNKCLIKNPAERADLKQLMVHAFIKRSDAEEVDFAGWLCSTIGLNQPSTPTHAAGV
Epidermal growth factor receptor (Homo sapiens), P00533 [L861Q], sequence (P00533 whole entry L861Q, the tested form may be a part): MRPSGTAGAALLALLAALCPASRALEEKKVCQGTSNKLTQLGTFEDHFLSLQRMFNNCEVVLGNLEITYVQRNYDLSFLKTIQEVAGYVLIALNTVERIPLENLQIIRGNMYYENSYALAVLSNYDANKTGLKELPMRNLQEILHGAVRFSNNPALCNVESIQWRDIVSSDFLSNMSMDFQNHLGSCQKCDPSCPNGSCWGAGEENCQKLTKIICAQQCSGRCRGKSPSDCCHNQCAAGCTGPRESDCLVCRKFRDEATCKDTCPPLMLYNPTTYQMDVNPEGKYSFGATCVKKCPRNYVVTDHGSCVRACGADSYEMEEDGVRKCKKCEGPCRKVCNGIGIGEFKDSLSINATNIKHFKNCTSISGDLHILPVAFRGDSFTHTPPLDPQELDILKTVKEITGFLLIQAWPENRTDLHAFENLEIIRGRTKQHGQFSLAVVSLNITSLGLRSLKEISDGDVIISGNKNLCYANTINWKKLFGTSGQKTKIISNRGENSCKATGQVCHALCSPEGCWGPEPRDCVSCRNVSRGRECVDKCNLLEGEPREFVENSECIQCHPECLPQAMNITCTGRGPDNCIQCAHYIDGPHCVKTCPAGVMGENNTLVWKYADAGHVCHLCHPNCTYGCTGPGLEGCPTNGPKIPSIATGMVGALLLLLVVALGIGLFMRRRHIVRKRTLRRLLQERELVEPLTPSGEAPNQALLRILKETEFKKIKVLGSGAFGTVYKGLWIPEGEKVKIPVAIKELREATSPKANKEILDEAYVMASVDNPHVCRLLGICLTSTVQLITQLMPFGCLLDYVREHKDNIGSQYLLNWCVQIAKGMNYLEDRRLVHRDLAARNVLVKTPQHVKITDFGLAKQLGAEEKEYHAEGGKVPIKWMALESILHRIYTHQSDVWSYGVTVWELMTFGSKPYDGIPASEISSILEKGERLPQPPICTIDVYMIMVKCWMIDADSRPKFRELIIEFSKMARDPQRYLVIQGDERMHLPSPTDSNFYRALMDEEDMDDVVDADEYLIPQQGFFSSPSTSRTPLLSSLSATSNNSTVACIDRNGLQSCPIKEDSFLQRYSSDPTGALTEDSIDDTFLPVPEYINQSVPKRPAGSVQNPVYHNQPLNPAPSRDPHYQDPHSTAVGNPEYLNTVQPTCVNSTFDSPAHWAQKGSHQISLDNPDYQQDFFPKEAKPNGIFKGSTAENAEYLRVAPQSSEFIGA
Aurora kinase A (Homo sapiens), sequence (O14965 whole entry, the tested form may be a part): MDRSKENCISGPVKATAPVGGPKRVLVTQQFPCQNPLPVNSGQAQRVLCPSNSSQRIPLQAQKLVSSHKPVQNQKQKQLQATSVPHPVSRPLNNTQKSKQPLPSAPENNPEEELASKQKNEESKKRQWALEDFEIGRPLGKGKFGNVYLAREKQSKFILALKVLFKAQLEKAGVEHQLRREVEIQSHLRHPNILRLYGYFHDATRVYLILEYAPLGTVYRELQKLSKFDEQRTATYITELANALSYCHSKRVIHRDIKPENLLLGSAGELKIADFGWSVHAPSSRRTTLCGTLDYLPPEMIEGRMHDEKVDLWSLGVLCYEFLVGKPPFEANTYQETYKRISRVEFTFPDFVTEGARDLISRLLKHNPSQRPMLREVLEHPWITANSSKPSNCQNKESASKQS
Mitogen-activated protein kinase 12 (Homo sapiens), sequence (P53778 whole entry, the tested form may be a part): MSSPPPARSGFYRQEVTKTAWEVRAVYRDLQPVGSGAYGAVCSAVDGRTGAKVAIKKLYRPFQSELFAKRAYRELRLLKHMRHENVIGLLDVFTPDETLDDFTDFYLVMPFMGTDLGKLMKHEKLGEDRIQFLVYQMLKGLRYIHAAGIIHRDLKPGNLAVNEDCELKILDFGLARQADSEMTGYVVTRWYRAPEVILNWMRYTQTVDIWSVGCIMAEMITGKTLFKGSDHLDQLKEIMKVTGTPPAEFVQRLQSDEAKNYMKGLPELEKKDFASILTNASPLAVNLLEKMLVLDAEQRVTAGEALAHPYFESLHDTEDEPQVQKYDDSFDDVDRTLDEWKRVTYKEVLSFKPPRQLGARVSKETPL
Ribosomal protein S6 kinase alpha-5 (Homo sapiens), sequence (O75582 whole entry, looked up, the tested form may be a part): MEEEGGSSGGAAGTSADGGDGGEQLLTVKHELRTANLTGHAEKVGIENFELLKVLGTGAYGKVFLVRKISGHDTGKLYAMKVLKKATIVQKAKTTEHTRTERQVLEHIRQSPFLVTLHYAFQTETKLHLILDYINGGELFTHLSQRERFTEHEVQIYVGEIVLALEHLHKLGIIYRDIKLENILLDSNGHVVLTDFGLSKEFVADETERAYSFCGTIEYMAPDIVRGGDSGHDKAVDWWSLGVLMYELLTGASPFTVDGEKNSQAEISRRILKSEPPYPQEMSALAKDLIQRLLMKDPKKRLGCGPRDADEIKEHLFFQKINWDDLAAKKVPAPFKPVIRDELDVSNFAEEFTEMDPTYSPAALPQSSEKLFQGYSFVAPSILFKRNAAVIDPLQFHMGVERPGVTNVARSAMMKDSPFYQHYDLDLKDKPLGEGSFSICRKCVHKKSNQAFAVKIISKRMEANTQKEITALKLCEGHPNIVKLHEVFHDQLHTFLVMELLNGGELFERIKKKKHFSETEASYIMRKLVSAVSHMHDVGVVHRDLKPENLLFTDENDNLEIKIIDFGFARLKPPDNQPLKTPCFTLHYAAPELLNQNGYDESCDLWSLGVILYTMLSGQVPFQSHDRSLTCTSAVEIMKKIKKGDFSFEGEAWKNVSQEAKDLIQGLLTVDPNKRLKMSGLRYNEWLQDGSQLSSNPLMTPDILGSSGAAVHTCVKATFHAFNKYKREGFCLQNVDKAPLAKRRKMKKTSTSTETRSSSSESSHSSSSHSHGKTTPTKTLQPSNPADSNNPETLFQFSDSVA
3-phosphoinositide-dependent protein kinase 1 (Homo sapiens), sequence (O15530 whole entry, the tested form may be a part): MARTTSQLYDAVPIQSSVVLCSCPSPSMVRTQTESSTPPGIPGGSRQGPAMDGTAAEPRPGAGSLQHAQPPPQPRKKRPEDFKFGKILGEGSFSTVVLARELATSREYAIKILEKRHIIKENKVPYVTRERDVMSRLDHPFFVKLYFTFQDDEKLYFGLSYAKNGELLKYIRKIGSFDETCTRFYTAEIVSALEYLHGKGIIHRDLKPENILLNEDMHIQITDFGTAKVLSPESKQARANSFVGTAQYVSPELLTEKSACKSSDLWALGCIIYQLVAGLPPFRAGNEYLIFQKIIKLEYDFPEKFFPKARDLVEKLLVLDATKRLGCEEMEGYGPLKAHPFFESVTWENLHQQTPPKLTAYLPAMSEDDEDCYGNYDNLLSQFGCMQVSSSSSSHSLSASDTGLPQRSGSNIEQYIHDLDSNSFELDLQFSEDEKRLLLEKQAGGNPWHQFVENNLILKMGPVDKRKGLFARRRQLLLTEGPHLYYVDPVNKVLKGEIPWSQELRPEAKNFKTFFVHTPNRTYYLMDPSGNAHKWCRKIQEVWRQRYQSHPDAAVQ

For `COc1cc(N2CCC(N3CCN(C)CC3)CC2)ccc1Nc1ncc2c(n1)N(C)c1ccccc1C(=O)N2C`, the inhibition [1] was 100%, the inhibition [2] was 100% and the residual activity [3] was 80%. The residual activity [4] was 96%, the inhibition [5] was 83% and the inhibition [6] was 80%. It also gave an inhibition [7] of 76%, an inhibition [8] of 100% and a residual activity [9] of 80%. The inhibition [10] was 100%, the inhibition [11] was 100% and the inhibition [12] was 31%. The inhibition [13] was 100%, the inhibition [14] was 100% and the inhibition [15] was 100%. The residual activity [16] was 95%, the residual activity [17] was 88% and the inhibition [18] was 1.2%. The inhibition [19] was 100%, the inhibition [20] was 100% and the inhibition [21] was 100%. The inhibition [22] was 92%, the inhibition [23] was 86% and the inhibition [24] was 95%. For the same compound, the inhibition [25] was 100%, the inhibition [26] was 90% and the residual activity [27] was 75%. It also gave an inhibition [28] of 100% and an inhibition [29] of 86%.

In the case of `CCOc1cc(C(=O)N2CCC(N3CCN(C)CC3)CC2)ccc1Nc1ncc2c(n1)N(C1CCCC1)c1ccccc1C(=O)N2C`, the inhibition [30] is reported as “inactive”.
